Experimental data taken from US4874773A, “3-Aminocarbonyl-1,4-dihydropyridine-5-carboxylic acid compounds, and pharmaceutical composition containing the same” (priority 1985, dated 1989).
Entries after “also recorded” stand apart in the source; their conditions may differ.

Assays:
[1] = tested on: Spontaneously hypertensive male rats; experiment: Experiment 1-1 Hypotensive activity (oral, conscious spontaneously hypertensive rats); assay type: in vivo, rat; conditions: for Recovering time / Time for recovering 1/2 of max. hypotension / Time until reaching to max. hypotension / Maximum hypotension: 10 mg/kg oral; for Maximum hypotension: mean blood pressure; for hypotensive activity (in words): Table 4, comparison with nifedipine and nicardipine hydrochloride where stated
Method: Spontaneously hypertensive male rats (13-15 week age, one group: 3 rats) were used. […] The rats were fixed in a Howlman cage without fasting, and the femoral arterial pressure was measured by a direct method without anesthesia with a cannula which was previously inserted into the femoral artery of the animal, via a pressure transducer (MPU-0.5, manufactured by Nippon Koden K.K.). The test compounds were orally administered in the form of a suspension in 0.5% methyl cellulose solution in a dose of 10 mg/kg (in some compounds, 3 mg/kg). In the control group, only 0.5% methyl cellulose solution was administered likewise. The blood pressure was measured for 5 hours after the administration of test compounds.

isolated aorta = experiment: Experiment 3 Relaxing activity on the isolated aorta (30 mM KCl contracted); parameters: species or system Japanese white rabbit; conditions: for EC50: Oryctolagus cuniculus, 30 mM KCl contraction, maximum relaxation by papaverine = 100%, read-out: EC50 (concentration for 50% relaxation); for relaxing / vasodilating activity on isolated aorta (in words): Table 8, comparison with nifedipine and nicardipine hydrochloride, etc. where stated
isolated heart = experiment: Experiment 2-1 Activity on isolated heart; parameters: species or system Japanese white rabbit; conditions: for activation at 3 µg/heart / inhibition at 3 µg/heart, 3 µg/heart / inhibition at 3 µg/heart: Oryctolagus cuniculus, 3 μg/heart; for activation at 3 µg/heart: read-out: Increase of coronary perfusion; for inhibition at 3 µg/heart, 3 µg/heart: read-out: Inhibitory rate of systole; for inhibition at 3 µg/heart: read-out: Reducing rate of heart pulse
Method: Japanese white rabbit (weighing 2.2-2.5 kg) was anesthetized by introvenous injection of nembutal (20 mg/kg) and then sacrificed by bleeding from common carotid artery. […] After stabilizing the heart preparation for 90 minutes, the test compound was administered. There were measured the perfusion volume with a drop-counting meter (ET-600G type, manufactured by Nippon Koden K.K.) and the heart pulse and the contractility via a force-displacement transducer (FD pick up, SB-IT type, manufactured by Nippon Koden K.K.) (for measuring heart pulse, an instant pulse meter (AT-601G type, minufactured by Nippon Koden K.K.) being further used).

Row | EC50 (isolated aorta) [µM] | SMILES | Recovering time [1] [h] | Time for recovering 1/2 of max. hypotension [1] [h] | Time until reaching to max. hypotension [1] [min] | Maximum hypotension [1] [mmHg] | hypotensive activity (in words) [1] | relaxing / vasodilating activity on isolated aorta (in words) (isolated aorta) | activation at 3 µg/heart (isolated heart) [%] | inhibition at 3 µg/heart, 3 µg/heart (isolated heart) [%] | inhibition at 3 µg/heart (isolated heart) [%] | inhibitions on the heart pulse and contactility (in words) (isolated heart; Table 6) | coronary vasodilating activity (in words) (isolated heart; Table 6, comparison with nifedipine and nicardipine hydrochloride, etc.)
1 | 0.58 | CCCCCCCOC(=O)C1=C(C)NC(C)=C(C(=O)NC(C)C)C1c1ccccc1[N+](=O)[O-] (centres unmarked) [Example 1, n-heptyl 2,6-dimethyl-3-isopropylaminocarbonyl-4-(o-nitrophenyl)-1,4-dihydropyridine-5-carboxylate] | > 5.0 | > 5.0 | 30 | 78 | the same or more potent activity with longer duration; also recorded: potent hypotensive activity | somewhat weak vasodilating activity | 25 | 40 | 15 | moderate inhibitions on the heart pulse and contactility | 
2 | 0.02 | COC(=O)C1=C(C)NC(C)=C(C(=O)NC(C)C)C1c1ccccc1[N+](=O)[O-] (centres unmarked) [Example 5, methyl 2,6-dimethyl-3-isopropylaminocarbonyl-4-(o-nitrophenyl)-1,4-dihydropyridine-5-carboxylate] | > 5.0 | 5.0 | 15 | 70 | the same or more potent activity with longer duration | the same or more potent activity | 28 | 15 | 25 |  | the same or more potent coronary vasodilating activity with longer duration
3 | 0.012 | CCCCOC(=O)C1=C(C)NC(C)=C(C(=O)NC(C)C)C1c1ccccc1[N+](=O)[O-] (centres unmarked) [Example 6, n-butyl 2,6-dimethyl-3-isopropylaminocarbonyl-4-(o-nitrophenyl)-1,4-dihydropyridine-5-carboxylate] | 5.0 | 3.5 | 15 | 57 |  | the same or more potent activity | 35 | 25 | 13 |  | 
4 | 0.03 | CCCCCOC(=O)C1=C(C)NC(C)=C(C(=O)NC(C)C)C1c1ccccc1[N+](=O)[O-] (centres unmarked) [Example 8, n-pentyl 2,6-dimethyl-3-isopropylaminocarbonyl-4-(o-nitrophenyl)-1,4-dihydropyridine-5-carboxylate] | 5.0 | 4.0 | 15 | 30 |  | the same or more potent activity | 35 | 13 | 5 |  | 
5 | 0.018 | CCOC(=O)C1=C(C)NC(C)=C(C(=O)NC(C)C)C1c1ccccc1[N+](=O)[O-] (centres unmarked) [Example 43] | 5.0 | 2.5 | 15 | 68 |  | the same or more potent activity | 35 | 35 | 40 |  | 
6 | 0.017 | CCCOC(=O)C1=C(C)NC(C)=C(C(=O)NC(C)C)C1c1ccccc1[N+](=O)[O-] (centres unmarked) [Example 44] | 4.0 | 2.5 | 15 | 60 |  | the same or more potent activity | 30 | 20 | 16 |  | 
7 | 0.17 | CC1=C(C(=O)NC(C)C)C(c2ccccc2[N+](=O)[O-])C(C(=O)OC(C)C)=C(C)N1 (centres unmarked) [Example 45] | 1.5 | 0.5 | 15 | 15 |  |  | 0 | 0 | 0 |  | 
8 | 0.07 | CC1=C(C(=O)NC(C)C)C(c2ccccc2[N+](=O)[O-])C(C(=O)OCC(C)C)=C(C)N1 (centres unmarked) [Example 46] | 1.5 | 0.5 | 15 | 10 |  | the same or more potent activity | 14 | 9 | 3 |  | 
9 | 0.02 | CC1=C(C(=O)NC(C)C)C(c2ccccc2[N+](=O)[O-])C(C(=O)OCCC(C)C)=C(C)N1 (centres unmarked) [Example 47] | 3.0 | 2.0 | 30 | 32 |  | the same or more potent activity | 35 | 5 | 11 |  | 
10 | 0.13 | CC1=C(C(=O)NC(C)C)C(c2ccccc2[N+](=O)[O-])C(C(=O)OCCCC(C)C)=C(C)N1 (centres unmarked) [Example 51] | > 5.0 | 3.0 | 30 | 40 |  |  | 40 | 30 | 25 |  | 
11 | 0.42 | CCCCCCCCCCOC(=O)C1=C(C)NC(C)=C(C(=O)NC(C)C)C1c1ccccc1[N+](=O)[O-] (centres unmarked) [Example 52] | 1.0 | 0.5 | 15 | 12 |  |  | 20 | 45 | 15 | moderate inhibitions on the heart pulse and contactility | 
12 | 0.15 | CCCCOC(=O)C1=C(C)NC(C)=C(C(=O)NC(C)C)C1c1cccc([N+](=O)[O-])c1 (centres unmarked) [Example 64] | 5.0 | 2.0 | 30 | 57 |  |  | 12 | 0 | 4 |  | 
13 | 0.13 | CC1=C(C(=O)NC(C)C)C(c2cccc([N+](=O)[O-])c2)C(C(=O)OCC(C)C)=C(C)N1 (centres unmarked) [Example 65] | 2.5 | 1.5 | 30 | 50 |  |  | 8 | 5 | 8 |  | 
14 | 0.1 | CCCCOC(=O)C1=C(C)NC(C)=C(C(=O)NCCC)C1c1cccc([N+](=O)[O-])c1 (centres unmarked) [Example 68] | 1.0 | 0.5 | 15 | 5 |  |  | 29 | 6 | 11 |  | 
